Test results reported in paper PMC4823711, “Allosteric Partial Inhibition of Monomeric Proteases. Sulfated Coumarins Induce Regulation, not just Inhibition, of Thrombin” (Scientific Reports, 2016).
Where “and” joins values, the source holds several entries; their conditions need not be identical. Identical values can stand only once.

How the values were obtained:
[1] = biological target: T1, wtTH (recombinant wild type thrombin) (Homo sapiens, UniProt P00734); assay: Inhibition of recombinant wild type thrombin; assay type: biochemical; details: pH 7.4, 25 °C
T1 construct: the recombinant wild-type thrombin control
Procedure: (§1) Chromogenic substrate hydrolysis assay was used to measure potency of inhibition, as previously reported. The assay was performed using Flexstation III (Molecular Devices, Sunnyvale, CA) by monitoring substrate hydrolysis at 405 nm. For thrombin and its mutants, 180 μL of buffer (20 mM Tris-HCl, 100 mM NaCl, 2.5 mM CaCl2, 0.1% (polyethylene glycol) PEG 8000, pH 7.4) was added to each well followed by 5 μL of 240 nM thrombin and 10 μL of sulfated coumarin in DMSO to give 0.002 to 250 μM final concentration (or 10 μL of DMSO alone). After incubation for 10 min at 25 °C, 5 μL of 2 mM Spectrozyme TH was added to each well simultaneously and allowed to react for 60 seconds at 25 °C while simultaneously monitoring the reaction to obtain the rate of increase in A405. Identical experimental conditions were used for reactions in the presence of antithrombin, except for 100 nM of antithrombin added prior to the addition of the substrate.

[2] = biological target: T2, thrombin mutant K235A (Homo sapiens, UniProt P00734, K610A); assay: Inhibition of thrombin mutant K235A; assay type: biochemical; details: pH 7.4, 25 °C
T2 construct: a group of thrombin mutants containing replacement of either Arg or Lys present in exosite 2 to Ala
Procedure: as §1

[3] = biological target: T3, fluorescein-labeled (f FPRCK-) thrombin (Homo sapiens, UniProt P00734); assay: Iodide fluorescence quenching of f FPRCK-thrombin (Stern-Volmer)
T3 construct: fluorescein-labeled (f FPRCK-) human thrombin; purchased Haematologic Technologies (Essex Junction, VT); host or cells: human plasma
Procedure: The quenching studies performed were done using quartz cuvettes, as described previously. 180 μL of buffer (20 mM Tris-HCl, 100 mM NaCl, 2.5 mM CaCl2, 0.1% PEG 8000, pH 7.4) and 20 μL of 2 μM fluorescein-labeled (f FPRCK-) human thrombin were added to the cuvette; fluorescent intensity readings were taken at the λEX of 490 nm and λEM of […] at 25 °C. A solution of 10 M NaI was made using buffer as the solvent. For the readings where inhibitor was absent, 1 μL increments of 10 M NaI was added directly to the cuvette after initial readings of the buffer-thrombin solution. NaI was added six times, while recording changes in fluorescent intensity each time, giving a concentration range of […] in the cuvette. For the readings where inhibitor was present, after the initial buffer-thrombin read, 1 μL of 80 μM inhibitor solution was added to the cuvette and mixed. An intensity reading was taken and then the addition of 1 μL increments of 10 M NaI was again performed six times, taking reads between each addition. The experiments were performed in triplicate and averaged. Initial fluorescence (F0) was the intensity reading from either the buffer-thrombin solution in the absence of 3g or following addition of 1 μL of 3g. […]

[4] = biological target: T3, fluorescein-labeled (f FPRCK-) thrombin; assay: Thermodynamic affinity by fluorescence titration; assay type: binding
Procedure: Affinity studies were performed in triplicate and conducted using quartz cuvettes. 180 μL of buffer (20 mM Tris-HCl, 100 mM NaCl, 2.5 mM CaCl2, 0.1% PEG 8000, pH 7.4) and 20 μL of 2 μM fluorescein-labeled (f FPRCK-) thrombin were added to the cuvette followed by titration with 1 μL additions of 3g. Fluorescence intensities were monitored by excitation at 490 nm and emission at 525 nm using slit widths of 0.5 mm. The KD of 3g–thrombin complex was calculated using the quadratic binding equation (equation 4) in which ∆F is the change in fluorescence from the formation of the thrombin-ligand complex with each addition of 3g. F0 is the initial fluorescence and ∆FMAX represents the maximum observed change in fluorescence due to thrombin saturation ([Th]0).

[5] = biological target: T4, factor XIa (Homo sapiens, UniProt P03951); assay: Chromogenic substrate hydrolysis assay, factor XIa inhibition (S-2366); assay type: biochemical
T4 construct: antithrombin, factor Xa and factor XIa were from Haematologic Technologies; purchased Haematologic Technologies (Essex Junction, VT); host or cells: human plasma
Procedure: (§2) For factor XIa inhibition studies, 85 μL of buffer (50 mM Tris-HCl, 150 mM NaCl, 0.1% PEG 8000, 0.02% Tween 80, pH 7.4) was added to each well, followed by 7 μL of 15.3 nM enzyme and 3 μL of sulfated coumarin (3.75–500 μM final concentration) and incubated for 10 min at 37 °C. After the incubation period, 5 μL of 6.9 mM S-2366 was added to each well simultaneously and allowed to react for 300 sec at 37 °C. For factor Xa assay, 180 μL of buffer (20 mM Tris-HCl, 100 mM NaCl, 2.5 mM CaCl2, 0.1% PEG 8000, 0.02% Tween 80, pH 7.4) was added to each well followed by 5 μL of 43.5 nM enzyme, 10 μL of sulfated coumarin (0.002–250 μM final concentration). After a 10 min incubation, 5 μL of 5 mM Spectrozyme FXa was added to each well simultaneously and allowed to react for 300 seconds at 37 °C. The slopes generated from each experiment were used to calculate the fractional residual activity (Y) at each concentration of the inhibitor, and analyzed using logistic equation 1, in which YM is the maximum efficacy, Y0 is minimum efficacy and HS is the Hill slope.

[6] = test system: recombinant human thrombins; assay: Inhibition of recombinant thrombins (wild type and exosite 2 mutants, summary statements); assay type: biochemical
Procedure: as §1

[7] = biological target: T5, thrombin mutant R126A (Homo sapiens, UniProt P00734, R486A); assay: Inhibition of thrombin mutant R126A; assay type: biochemical; details: pH 7.4, 25 °C
T5 construct: a group of thrombin mutants containing replacement of either Arg or Lys present in exosite 2 to Ala
Procedure: as §1

[8] = biological target: thrombin (Homo sapiens, UniProt P00734); assay: Chromogenic substrate hydrolysis assay, thrombin inhibition (Spectrozyme TH); assay type: biochemical; set-up: 6 nM plasma α-thrombin; purchased Haematologic Technologies (Essex Junction, VT); details: pH 7.4, 25 °C
Procedure: as §1, §2

[9] = biological target: T6, thrombin mutant R165A (Homo sapiens, UniProt P00734, R533A); assay: Inhibition of thrombin mutant R165A; assay type: biochemical; details: pH 7.4, 25 °C
T6 construct: a group of thrombin mutants containing replacement of either Arg or Lys present in exosite 2 to Ala
Procedure: as §1

T4 sequence (P03951 388-625 limits assumed): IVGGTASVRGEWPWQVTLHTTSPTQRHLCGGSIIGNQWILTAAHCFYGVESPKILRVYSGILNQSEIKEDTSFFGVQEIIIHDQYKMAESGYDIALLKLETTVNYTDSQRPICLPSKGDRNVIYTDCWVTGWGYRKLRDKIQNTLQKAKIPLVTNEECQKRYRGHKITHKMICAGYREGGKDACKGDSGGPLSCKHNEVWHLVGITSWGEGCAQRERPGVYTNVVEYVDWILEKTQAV
T4 sequence (P03951 19-387 limits assumed): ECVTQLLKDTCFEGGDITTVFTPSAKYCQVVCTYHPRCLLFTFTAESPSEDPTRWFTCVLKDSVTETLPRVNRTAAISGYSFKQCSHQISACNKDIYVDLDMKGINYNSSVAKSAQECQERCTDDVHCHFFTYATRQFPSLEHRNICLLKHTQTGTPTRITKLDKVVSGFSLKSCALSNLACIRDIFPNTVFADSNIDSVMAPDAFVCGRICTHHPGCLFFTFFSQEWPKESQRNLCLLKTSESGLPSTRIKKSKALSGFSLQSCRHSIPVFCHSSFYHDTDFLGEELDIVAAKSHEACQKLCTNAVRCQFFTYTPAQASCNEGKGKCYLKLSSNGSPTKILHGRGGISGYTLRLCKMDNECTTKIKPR

HS [1]: 4.0 | IC50 [1]: 413 ± 50 nM | ΔY [1]: 39 ± 3% | HS [2]: 1.9 | IC50 [2]: 471 ± 80 nM | ΔY [2]: 33 ± 3% | slope of iodide quenching (Stern-Volmer, KSV) ([3]; 90% saturation of thrombin, pH 7.4, 25 °C, thrombin alone 2.37 ± 0.14): 1.19 ± 0.06 M⁻¹ | reduction of iodide quenching of f FPRCK-thrombin ([3]; 90% saturation, versus thrombin alone): ~ 50% | ΔFMAX ([4]; loss in fluorescence at saturation): ~ 28% | Kd ([4]; pH 7.4, λEX 490 nm, λEM 525 nm, quadratic binding equation): 143 ± 14 nM | selectivity for thrombin in comparison to factor XIa [5]: ~ 150 fold | IC50 ([5]; pH 7.4, 37 °C, read-out: IC50 against factor XIa): > 30000 nM | increase of IC50 in comparison to recombinant wild-type thrombin ([6]; mutants K236A, K235A, R173A and K169A): < 1.4 fold | HS [7]: 3.2 | IC50 [7]: 308 ± 30 nM | ΔY [7]: 41 ± 2% | Hill slope (HS) of thrombin inhibition [8]: 1.2 | efficacy of thrombin inhibition (ΔY) ([8]; at saturation): 47% and 50% | IC50 ([8]; read-out: IC50 against thrombin): 180 nM | HS [9]: 4.2 | IC50 [9]: 301 ± 20 nM | ΔY [9]: 28 ± 2%
Structure (SMILES): O=c1oc2cc(OCCCCn3cc(COc4ccc(-c5c(-c6ccccc6)c6cc(Cl)cc(Cl)c6oc5=O)cc4)nn3)ccc2c(-c2ccccc2)c1-c1ccc(OS(=O)(=O)O)cc1 [3g]
maximal inhibition efficacies ([6]; range over all recombinant thrombins studied): 28 to 64%
